This is an account of results in PubChem BioAssay (NCI).

Molecules are shown by their SMILES.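 Five concentrations, 48 hours, 96-well plates. TGI denotes the concentration required for complete inhibition of growth.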

In one experiment the test system is HL-60(TB) leukemia. Description: NCI-60 cell line screen, 48 h.
As for `NC(=O)OCC(COc1ccc(Cl)cc1)OC(=O)c1ccccc1Cl` (stereo unspecified), the TGI turned out to be 41.5 µM.

The next experiment concerns SF-295 CNS. Description: NCI-60 cell line screen, 48 h.
Molecule `C/C(CN1C(=O)c2ccccc2C1=O)=N\NS(=O)(=O)c1ccc(Br)cc1` returned a TGI above 100 µM.

`CC1CC2OC(=O)C3CC(O)CC(=C23)[C@@]12C[C@@H](c1ccoc1)OC2=O` (stereo partly specified) registered a TGI above 100 µM.

In turn, `NC(=S)NNC(=O)/C(=C/c1ccc(/C=C(\NC(=O)c2ccccc2)C(=O)NNC(N)=S)cc1)NC(=O)c1ccccc1` returned a TGI above 100 µM.

In turn, `NC(=O)OCC(COc1ccc(Cl)cc1)OC(=O)c1ccccc1Cl` (stereo unspecified) came in with a TGI of 62.2 µM.

Another experiment has as its system OVCAR-8 ovarian. In words: NCI-60 cell line screen, 48 h.
Molecule `C/C(CN1C(=O)c2ccccc2C1=O)=N\NS(=O)(=O)c1ccc(Br)cc1` yielded a TGI above 100 µM.

`CC1CC2OC(=O)C3CC(O)CC(=C23)[C@@]12C[C@@H](c1ccoc1)OC2=O` (stereo partly specified): the TGI is above 100 µM.

`NC(=S)NNC(=O)/C(=C/c1ccc(/C=C(\NC(=O)c2ccccc2)C(=O)NNC(N)=S)cc1)NC(=O)c1ccccc1` yielded a TGI above 100 µM.

`NC(=O)OCC(COc1ccc(Cl)cc1)OC(=O)c1ccccc1Cl` (stereo unspecified) gave a TGI of 54.3 µM.

For a further experiment, the system named is MOLT-4 leukemia. In words: NCI-60 cell line screen, 48 h.
`C/C(CN1C(=O)c2ccccc2C1=O)=N\NS(=O)(=O)c1ccc(Br)cc1` had a TGI above 100 µM.

Consider `CC1CC2OC(=O)C3CC(O)CC(=C23)[C@@]12C[C@@H](c1ccoc1)OC2=O` (stereo partly specified), for which the TGI is above 100 µM.

`NC(=S)NNC(=O)/C(=C/c1ccc(/C=C(\NC(=O)c2ccccc2)C(=O)NNC(N)=S)cc1)NC(=O)c1ccccc1` gave a TGI above 50.8 µM.

The molecule `NC(=O)OCC(COc1ccc(Cl)cc1)OC(=O)c1ccccc1Cl` (stereo unspecified) registered a TGI of 56.6 µM.

In the next experiment the test system is CCRF-CEM leukemia. Description: NCI-60 cell line screen, 48 h.
The molecule `C/C(CN1C(=O)c2ccccc2C1=O)=N\NS(=O)(=O)c1ccc(Br)cc1` displayed a TGI above 100 µM.

In turn, `CC1CC2OC(=O)C3CC(O)CC(=C23)[C@@]12C[C@@H](c1ccoc1)OC2=O` (stereo partly specified) gave a TGI above 100 µM.

As to `NC(=S)NNC(=O)/C(=C/c1ccc(/C=C(\NC(=O)c2ccccc2)C(=O)NNC(N)=S)cc1)NC(=O)c1ccccc1`, the TGI is above 100 µM.

`NC(=O)OCC(COc1ccc(Cl)cc1)OC(=O)c1ccccc1Cl` (stereo unspecified): the TGI was 47.4 µM.

Another experiment has as its system HCT-116 colon. In words: NCI-60 cell line screen, 48 h.
Molecule `C/C(CN1C(=O)c2ccccc2C1=O)=N\NS(=O)(=O)c1ccc(Br)cc1` gave a TGI above 100 µM.

`CC1CC2OC(=O)C3CC(O)CC(=C23)[C@@]12C[C@@H](c1ccoc1)OC2=O` (stereo partly specified) displayed a TGI above 100 µM.

As to `NC(=S)NNC(=O)/C(=C/c1ccc(/C=C(\NC(=O)c2ccccc2)C(=O)NNC(N)=S)cc1)NC(=O)c1ccccc1`, the TGI is above 100 µM.

As for `NC(=O)OCC(COc1ccc(Cl)cc1)OC(=O)c1ccccc1Cl` (stereo unspecified), the TGI is 30.7 µM.

The test system of another experiment is HCT-15 colon. In words: NCI-60 cell line screen, 48 h.
For the molecule `C/C(CN1C(=O)c2ccccc2C1=O)=N\NS(=O)(=O)c1ccc(Br)cc1`, the TGI is above 100 µM.

The molecule `CC1CC2OC(=O)C3CC(O)CC(=C23)[C@@]12C[C@@H](c1ccoc1)OC2=O` (stereo partly specified) yielded a TGI above 100 µM.

For the molecule `NC(=S)NNC(=O)/C(=C/c1ccc(/C=C(\NC(=O)c2ccccc2)C(=O)NNC(N)=S)cc1)NC(=O)c1ccccc1`, the TGI is above 100 µM.

Regarding `NC(=O)OCC(COc1ccc(Cl)cc1)OC(=O)c1ccccc1Cl` (stereo unspecified), the TGI is 30 µM.

Another experiment deals with ACHN renal. In words: NCI-60 cell line screen, 48 h.
The molecule `C/C(CN1C(=O)c2ccccc2C1=O)=N\NS(=O)(=O)c1ccc(Br)cc1` came in with a TGI above 100 µM.

Molecule `CC1CC2OC(=O)C3CC(O)CC(=C23)[C@@]12C[C@@H](c1ccoc1)OC2=O` (stereo partly specified) returned a TGI above 100 µM.

In the case of `NC(=S)NNC(=O)/C(=C/c1ccc(/C=C(\NC(=O)c2ccccc2)C(=O)NNC(N)=S)cc1)NC(=O)c1ccccc1`, the TGI is above 100 µM.

For the molecule `NC(=O)OCC(COc1ccc(Cl)cc1)OC(=O)c1ccccc1Cl` (stereo unspecified), the TGI was 95.1 µM.

The next experiment relates to SK-OV-3 ovarian. Description: NCI-60 cell line screen, 48 h.
With `C/C(CN1C(=O)c2ccccc2C1=O)=N\NS(=O)(=O)c1ccc(Br)cc1`, the TGI is above 100 µM.

The molecule `CC1CC2OC(=O)C3CC(O)CC(=C23)[C@@]12C[C@@H](c1ccoc1)OC2=O` (stereo partly specified) returned a TGI above 100 µM.

`NC(=S)NNC(=O)/C(=C/c1ccc(/C=C(\NC(=O)c2ccccc2)C(=O)NNC(N)=S)cc1)NC(=O)c1ccccc1` gave a TGI above 100 µM.

For the molecule `NC(=O)OCC(COc1ccc(Cl)cc1)OC(=O)c1ccccc1Cl` (stereo unspecified), the TGI is above 100 µM.

Another experiment relates to HOP-62 NSCLC. Description: NCI-60 cell line screen, 48 h.
With `C/C(CN1C(=O)c2ccccc2C1=O)=N\NS(=O)(=O)c1ccc(Br)cc1`, the TGI is above 100 µM.

Consider `NC(=S)NNC(=O)/C(=C/c1ccc(/C=C(\NC(=O)c2ccccc2)C(=O)NNC(N)=S)cc1)NC(=O)c1ccccc1`, for which the TGI is above 100 µM.

With `NC(=O)OCC(COc1ccc(Cl)cc1)OC(=O)c1ccccc1Cl` (stereo unspecified), the TGI was found to be 49.2 µM.

The next experiment relates to 786-0 renal. Description: NCI-60 cell line screen, 48 h.
Take `C/C(CN1C(=O)c2ccccc2C1=O)=N\NS(=O)(=O)c1ccc(Br)cc1`: the TGI was above 100 µM.

`CC1CC2OC(=O)C3CC(O)CC(=C23)[C@@]12C[C@@H](c1ccoc1)OC2=O` (stereo partly specified) displayed a TGI above 100 µM.

Regarding `NC(=S)NNC(=O)/C(=C/c1ccc(/C=C(\NC(=O)c2ccccc2)C(=O)NNC(N)=S)cc1)NC(=O)c1ccccc1`, the TGI was above 100 µM.

With `NC(=O)OCC(COc1ccc(Cl)cc1)OC(=O)c1ccccc1Cl` (stereo unspecified), the TGI was determined as 36.6 µM.

For the next experiment, the system named is OVCAR-3 ovarian. Description: NCI-60 cell line screen, 48 h.
Molecule `C/C(CN1C(=O)c2ccccc2C1=O)=N\NS(=O)(=O)c1ccc(Br)cc1` registered a TGI above 100 µM.

Consider `CC1CC2OC(=O)C3CC(O)CC(=C23)[C@@]12C[C@@H](c1ccoc1)OC2=O` (stereo partly specified), for which the TGI is above 100 µM.

As to `NC(=S)NNC(=O)/C(=C/c1ccc(/C=C(\NC(=O)c2ccccc2)C(=O)NNC(N)=S)cc1)NC(=O)c1ccccc1`, the TGI is above 100 µM.

`NC(=O)OCC(COc1ccc(Cl)cc1)OC(=O)c1ccccc1Cl` (stereo unspecified) registered a TGI of 40.7 µM.

In the next experiment the test system is RXF 393 renal. Description: NCI-60 cell line screen, 48 h.
In turn, `C/C(CN1C(=O)c2ccccc2C1=O)=N\NS(=O)(=O)c1ccc(Br)cc1` displayed a TGI above 100 µM.

The molecule `CC1CC2OC(=O)C3CC(O)CC(=C23)[C@@]12C[C@@H](c1ccoc1)OC2=O` (stereo partly specified) showed a TGI above 100 µM.

`NC(=S)NNC(=O)/C(=C/c1ccc(/C=C(\NC(=O)c2ccccc2)C(=O)NNC(N)=S)cc1)NC(=O)c1ccccc1` registered a TGI above 100 µM.

The molecule `NC(=O)OCC(COc1ccc(Cl)cc1)OC(=O)c1ccccc1Cl` (stereo unspecified) yielded a TGI of 25.7 µM.

The next experiment concerns KM12 colon. In words: NCI-60 cell line screen, 48 h.
On to `C/C(CN1C(=O)c2ccccc2C1=O)=N\NS(=O)(=O)c1ccc(Br)cc1`, for which the TGI is above 100 µM.

Take `CC1CC2OC(=O)C3CC(O)CC(=C23)[C@@]12C[C@@H](c1ccoc1)OC2=O` (stereo partly specified): the TGI was above 100 µM.

Consider `NC(=S)NNC(=O)/C(=C/c1ccc(/C=C(\NC(=O)c2ccccc2)C(=O)NNC(N)=S)cc1)NC(=O)c1ccccc1`, for which the TGI is above 100 µM.

In the case of `NC(=O)OCC(COc1ccc(Cl)cc1)OC(=O)c1ccccc1Cl` (stereo unspecified), the TGI amounted to 45.5 µM.

For the next experiment, the system named is SW-620 colon. In words: NCI-60 cell line screen, 48 h.
`C/C(CN1C(=O)c2ccccc2C1=O)=N\NS(=O)(=O)c1ccc(Br)cc1` gave a TGI above 100 µM.

For the molecule `CC1CC2OC(=O)C3CC(O)CC(=C23)[C@@]12C[C@@H](c1ccoc1)OC2=O` (stereo partly specified), the TGI is above 100 µM.

`NC(=S)NNC(=O)/C(=C/c1ccc(/C=C(\NC(=O)c2ccccc2)C(=O)NNC(N)=S)cc1)NC(=O)c1ccccc1` returned a TGI above 100 µM.

Take `NC(=O)OCC(COc1ccc(Cl)cc1)OC(=O)c1ccccc1Cl` (stereo unspecified): the TGI amounted to 36.4 µM.
